{
  "source": "patent US8003635B2",
  "about": "“Superoxide dismutase mimics for the treatment of ocular disorders and diseases” (Novartis AG, priority 2001, dated 2011)",
  "origin": "cited, not measured here",
  "key": {"[1]": {"test_system": "light-induced retinal damage", "conditions": "albino rats"}, "onset of diabetes": {"test_system": "onset of diabetes", "conditions": "diabetogenic T-cell clone"}},
  "data": [
    {"smiles": "CC1(C)CC(O)CC(C)(C)N1[O]", "note": "[4-hydroxy-2,2,6,6-tetramethylpiperidine-1-oxyl]", "values": [
      {"measurement": "light-induced retinal damage", "setting": "[1]", "result": "inhibited light-induced retinal damage"}
    ]},
    {"smiles": "[Cl-].[Cl-].[Mn+2].c1cc2nc(c1)CN[C@@H]1CCCC[C@H]1NCCN[C@@H]1CCCC[C@H]1NC2", "note": "[M40403]", "values": [
      {"measurement": "vascular and neural dysfunction", "setting": "diabetic rats", "result": "prevented vascular and neural dysfunction"}
    ]},
    {"smiles": "CCN1C=CC=C/C1=C1/C2=NC(=C(c3cccc[n+]3CC)C3=NC(=C(c4cccc[n+]4CC)c4ccc([n-]4)C(c4cccc[n+]4CC)=C4C=CC1=N4)C=C3)C=C2.[Cl-].[Cl-].[Cl-].[Cl-].[Cl-].[Mn+3]", "note": "[AEOL10113]", "values": [
      {"measurement": "onset of diabetes", "setting": "onset of diabetes", "result": "delay the onset of diabetes"}
    ]}
  ]
}
